What follows are molecules tested against T1, angiotensin converting enzyme (ACE) (Rattus norvegicus, UniProt P47820) (assay: ACE inhibition in anesthetized rats: inhibition of angiotensin I pressor response after iv test drug). Settings: anesthetized Sprague-Dawley rats; drug iv; angiotensin I challenge 5 min after dosing; blood pressure response as percent of control; linear regression.
T1 construct: Drugs were injected intravenously; from tissue; host or cells: whole living animal (anesthetized Sprague-Dawley rat); no enzyme isolated
T1 sequence (P47820 36-1313): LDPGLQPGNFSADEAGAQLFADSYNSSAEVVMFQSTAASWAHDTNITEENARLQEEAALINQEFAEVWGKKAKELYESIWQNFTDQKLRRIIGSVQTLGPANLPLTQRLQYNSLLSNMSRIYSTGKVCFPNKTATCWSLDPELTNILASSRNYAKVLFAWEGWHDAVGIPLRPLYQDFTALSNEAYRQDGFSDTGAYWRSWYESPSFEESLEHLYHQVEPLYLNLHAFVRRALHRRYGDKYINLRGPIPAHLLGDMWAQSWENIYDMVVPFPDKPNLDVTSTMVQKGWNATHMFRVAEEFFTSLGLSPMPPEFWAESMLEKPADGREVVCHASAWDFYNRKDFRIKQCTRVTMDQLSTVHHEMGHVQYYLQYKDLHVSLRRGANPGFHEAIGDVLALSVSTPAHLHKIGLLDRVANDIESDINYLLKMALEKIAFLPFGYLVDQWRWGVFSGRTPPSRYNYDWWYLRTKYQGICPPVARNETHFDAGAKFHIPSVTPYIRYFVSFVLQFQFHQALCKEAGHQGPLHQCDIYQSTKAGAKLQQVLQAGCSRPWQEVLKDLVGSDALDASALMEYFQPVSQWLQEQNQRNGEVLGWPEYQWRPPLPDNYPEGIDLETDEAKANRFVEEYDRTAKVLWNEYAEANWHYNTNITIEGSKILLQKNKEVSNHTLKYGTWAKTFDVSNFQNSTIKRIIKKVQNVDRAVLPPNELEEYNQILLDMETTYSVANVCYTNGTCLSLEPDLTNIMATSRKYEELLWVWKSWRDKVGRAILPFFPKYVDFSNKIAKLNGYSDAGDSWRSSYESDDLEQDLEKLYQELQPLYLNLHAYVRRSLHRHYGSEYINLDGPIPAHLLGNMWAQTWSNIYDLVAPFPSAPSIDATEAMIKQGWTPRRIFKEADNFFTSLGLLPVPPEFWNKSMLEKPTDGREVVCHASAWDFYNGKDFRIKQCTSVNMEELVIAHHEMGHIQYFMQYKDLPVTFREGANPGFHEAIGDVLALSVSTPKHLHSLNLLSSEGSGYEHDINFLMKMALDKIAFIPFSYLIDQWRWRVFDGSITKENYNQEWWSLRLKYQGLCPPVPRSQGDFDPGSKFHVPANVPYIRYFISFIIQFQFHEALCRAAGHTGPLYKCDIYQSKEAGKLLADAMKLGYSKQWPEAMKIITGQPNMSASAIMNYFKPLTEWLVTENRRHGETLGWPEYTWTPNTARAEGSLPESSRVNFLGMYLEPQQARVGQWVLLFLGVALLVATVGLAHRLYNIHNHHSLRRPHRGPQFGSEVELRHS
Assay type: in vivo, Sprague-Dawley rats

Row | Structure (SMILES) | ID50
1 | CCOC(=O)[C@H](CSCc1ccccc1)NC(C)C(=O)N1C2CCCCC2C[C@H]1C(=O)O.Cl (relative stereo) [Compound 3, 1-[N-[1(R)-Ethoxycarbonyl-2-(benzylthio)ethyl]-(R,S)-alanyl]-cis,syn-perhydroindole-2(S)-carboxylic acid, hydrochloride] | 30 µg/kg
2 | CCOC(=O)[C@H](CSCc1ccc2ccccc2c1)N[C@H](C)C(=O)N1C2CCCCC2C[C@H]1C(=O)O.Cl (relative stereo) [Compound 7, 1-[N-[1(R)-Ethoxycarbonyl-2-(2-naphthylmethylthio)ethyl]-(R)alanyl]-cis,syn-perhydroindole-2(S)-carboxylic acid hydrochloride] | > 1,000 μg/kg
3 | CCOC(=O)[C@H](CSCc1ccccc1)NC(C)C(=O)N1CCC[C@H]1C(=O)O.Cl (stereo partly drawn) [Compound 1, N-(1(R)-Ethoxycarbonyl-2-benzylthioethyl)-(R,S)-alanyl-(S)-proline hydrochloride] | 66 µg/kg
4 | CCOC(=O)[C@H](CSCCc1ccccc1)N[C@@H](C)C(=O)N1C2CCCCC2C[C@H]1C(=O)O.Cl (relative stereo) [Compound 8, 1-[N-[1(R)-Ethoxycarbonyl-2-(phenylethylthio)ethyl]-(S)alanyl]-cis,syn-perhydroindole-2(S)-carboxylic acid hydrochloride] | 32 µg/kg
5 | Br.CCOC(=O)[C@H](CSCc1ccccc1)N[C@H](C)C(=O)N1[C@H](C(=O)O)C[C@@H]2CCCC[C@@H]21 (relative stereo) [Compound 5, 1-[N-[1(R)-Ethoxycarbonyl-2-(benzylthio)ethyl]-(R)-alanyl]-cis,syn-perhydroindole-2(S)-carboxylic acid, hydrobromide] | 350 µg/kg
6 | CCOC(=O)[C@H](COCc1ccccc1)NC(C)C(=O)N1CCC[C@H]1C(=O)O.Cl (stereo partly drawn) [Compound 2, N-(1(S)-Ethoxycarbonyl-2-benzyloxyethyl)-(R,S)-alanyl-(S)-proline hydrochloride] | 130 µg/kg
7 | CCOC(=O)[C@H](CSCc1ccc2ccccc2c1)N[C@@H](C)C(=O)N1[C@H](C(=O)O)C[C@@H]2CCCC[C@@H]21.Cl (relative stereo) [Compound 6, 1-[N-[1(R)-Ethoxycarbonyl-2-(2-naphthylmethylthio)ethyl]-(S)-alanyl]-cis,syn-perhydroindole-2(S)-carboxylic acid hydrochloride] | > 100 µg/kg
8 | CCOC(=O)[C@H](CSCc1ccccc1)N[C@@H](C)C(=O)N1[C@H](C(=O)O)C[C@@H]2CCCC[C@@H]21 (relative stereo) [Compound 4, 1-[N-[1(R)-EthoxYcarbonyl-2-(benzylthio)ethyl]-(S)-alanyl]-cis,syn-perhydroindole-2(S)-carboxylic acid] | 29 µg/kg
9 | CCOC(=O)[C@H](CSCc1ccc(C)cc1)NC(C)C(=O)N1C2CCCCC2C[C@H]1C(=O)O (relative stereo) [4-methylbenzyl-thiomethyl, 1-[N-[1(R)-Ethoxycarbonyl-2-(4-methylbenzylthio)ethyl]-(R,S)-alanyl]-cis,syn-perhydroindole-2(S)-carboxylic acid] | 88 µg/kg
10 | CCOC(=O)[C@H](CSCCc1ccccc1)N[C@H](C)C(=O)N1[C@H](C(=O)O)C[C@@H]2CCCC[C@@H]21.Cl (relative stereo) [Compound 9, 1-[N-[1(R)-Ethoxycarbonyl-2-(phenylethylthio)ethyl]-(R)alanyl]-cis,syn-perhydroindole-2(S)-carboxylic acid hydrochloride] | > 1,000 μg/kg
11 | C[C@H](N[C@@H](CCc1ccccc1)C(=O)O)C(=O)N1CCC[C@H]1C(=O)O [enalapril diacid, reference compound] | 15 ± 3 µg/kg
12 | C[C@H](N[C@@H](CCc1ccc(C(=O)O)cc1)C(=O)O)C(=O)N1C2CCCCC2C[C@H]1C(=O)O (relative stereo) [Compound 10, 1-[N-[1(S)-Carboxy-3-(4-carboxyphenyl)propyl]-(S)-alanyl]-cis,syn-perhydroindole-2(S)-carboxylic acid] | 11 µg/kg

Same assay, conditions: rat, iv, 5 min, read-out: ID50

Row | Structure (SMILES) | ED50 [mg/kg]
13 | CCOC(=O)[C@H](CCc1ccccc1)N[C@@H](C)C(=O)N1CCC[C@H]1C(=O)O [enalapril, reference compound] | 0.057 ± 0.007
